The term logP denotes a log measure of how a compound divides between an organic and an aqueous phase. Consider `CCCCOC(=O)CSC1c2cccc(O)c2C(=O)c2c(O)cccc21`, for which the logP turned out to be 4.41.
The result for `CCSC1c2cccc(O)c2C(=O)c2c(O)cccc21` reads 2.97; that for `O=C1c2c(O)cccc2C(SCCCc2ccccc2)c2cccc(O)c21`, 4.78; that for `O=C1c2c(O)cccc2C(SCCO)c2cccc(O)c21`, 3.16.
The figure for `COC(=O)CSC1c2cccc(O)c2C(=O)c2c(O)cccc21` is 3.53.
For `O=C1c2c(O)cccc2C(SCc2ccccc2)c2cccc(O)c21`, the logP was 4.87.
`Nc1ccc(SC2c3cccc(O)c3C(=O)c3c(O)cccc32)cc1` displayed a logP of 3.65.
The figure for `O=C(O)CSC1c2cccc(O)c2C(=O)c2c(O)cccc21` is 2.35.
With `CCCCOC(=O)CCSC1c2cccc(O)c2C(=O)c2c(O)cccc21`, the logP is 4.55.
In the case of `O=C1c2c(O)cccc2C(Sc2ccccc2O)c2cccc(O)c21`, the lipophilicity (logP) came out at 3.92.
The result for `COc1ccccc1SC1c2cccc(O)c2C(=O)c2c(O)cccc21` reads 4.42.
The figure for `CC(SC1c2cccc(O)c2C(=O)c2c(O)cccc21)C(=O)O` (stereo not given) is 2.77; for `COc1ccc(SC2c3cccc(O)c3C(=O)c3c(O)cccc32)cc1` it is 4.51.
`Nc1ccccc1SC1c2cccc(O)c2C(=O)c2c(O)cccc21`: the logP worked out at 4.05.
In the case of `CCOC(=O)CCSC1c2cccc(O)c2C(=O)c2c(O)cccc21`, the logP came out at 4.59.
The result for `CCCSC1c2cccc(O)c2C(=O)c2c(O)cccc21` reads 4.57; that for `O=C1c2c(O)cccc2C(SCCc2ccccc2)c2cccc(O)c21`, 4.97; that for `COc1ccc(CSC2c3cccc(O)c3C(=O)c3c(O)cccc32)cc1`, 4.83.
Molecule `COc1cccc(SC2c3cccc(O)c3C(=O)c3c(O)cccc32)c1` displayed a logP of 4.5.
The figure for `O=C1c2c(O)cccc2C(Sc2ccccc2)c2cccc(O)c21` is 4.54; for `CCOC(=O)CSC1c2cccc(O)c2C(=O)c2c(O)cccc21` it is 4.45.
The result for `O=C1c2c(O)cccc2C(SCCCS)c2cccc(O)c21` reads 4.33.
Molecule `O=C(O)CCSC1c2cccc(O)c2C(=O)c2c(O)cccc21` showed a logP of 3.
`O=C1c2c(O)cccc2C(Sc2ccc(O)cc2)c2cccc(O)c21` showed a lipophilicity (logP) of 3.69.
The figure for `O=C1c2c(O)cccc2C(SCC(O)CO)c2cccc(O)c21` (stereo not given) is 2.73.

Values taken from the SangsterLogP compilation.
